The text below walks through data of publication PMC9968125, “Secondary Metabolites with Anti-Inflammatory Activity from Laurencia majuscula Collected in the Red Sea” (Marine Drugs, 2023).

Data set [1] has as its system RAW 264.7 cells. In words: MTT assay, cytostatic activity on RAW 264.7 cells. Format: cell-based, mouse. The note with it: for Cytostatic Activity: RAW 264.7, at 72 h, n.a. = no cytostatic activity observed at the concentrations tested; for cytostatic activity above the stated concentration: RAW 264.7, 24, 48 and 72 h. How it is done: In order to verify that the anti-inflammatory activity observed was not due to a potential cytostatic effect of the metabolites, an MTT assay was performed in cells exposed to increasing concentrations of metabolites 1, 2, 4–8, 10, 12–16, 18 and 20–22 for 24, 48 and 72 h (Table 3, Figure 5). The time point that the cytostatic activity was observed reflected its potency since cytotoxicity is a cumulative process.
Mouse macrophage RAW 264.7 cell line was cultured in DMEM medium (cat. # 21885-025, Gibco) supplemented with 10% v/v heat-inactivated fetal bovine serum (cat. # 10270-106, Gibco) and 1% v/v penicillin-streptomycin (cat. # 15070-063, Gibco). Cells were grown in stable conditions, 37 °C and 5% CO2, in a CO2 cell culture sterile incubator. In compound treatments, each compound tested was diluted in Carbowax^TM 400 + 10% abs. ethanol (E/0650DF/17, Fisher chemical), serving also as the control solvent. The final concentration of ethanol in cell culture was 0.01% v/v and of Carbowax^TM 400 0.1% v/v independently of the compound dilution prepared. Macrophage activation was performed using 100 ng/mL LPS (L2630, Sigma) and, in the case of compound-treated cells, macrophages were pre-treated for 1 h with the respective compounds before LPS stimulation.
5 × 10^3 RAW 264.7 mouse macrophages per sample were seeded in 96-well plates (one plate per measurement) and cultured overnight. Cells were treated with the respective compound concentration and incubated for 24, 48 or 72 h. The number of cells was measured prior to treatment and used as normalization control. Thiazolyl Blue Tetrazolium Bromide (MTT) (A2231.001, Applichem) was added to the cells in a final concentration of 500 µg/mL and then cells were incubated at 37 °C plus 5% CO2 for 4 h. The supernatant was removed, and cells were lysed in a mix of 100 μL of isopropanol with 0.4% HCl. The absorbance of each sample was measured using an automated microplate reader (Infinite 200 PRO, Tecan) at 600 nm. The average OD of each treated sample was normalized to the OD of the control sample.
A general note: Tetrazolium assays rely on reduction of a dye to a coloured formazan, in cell work by metabolically active cells.

Data set [2] relates to nitric oxide (NO) production in LPS-activated RAW 264.7 macrophages. In words: Suppression of NO release (Griess reaction) in LPS/TLR4-activated RAW 264.7 macrophages. Format: cell-based, mouse. The note with it: for IC50: 1 h pre-treatment, LPS 100 ng/mL, Griess reaction at 48 h, read-out: Inhibition of NO Production (IC50). How it is done: The anti-inflammatory activity of metabolites 1, 2, 4–8, 10, 12–16, 18 and 20–22 was evaluated using the RAW 264.7 macrophage cell line, which has been proven to be a powerful tool for the detection of bioactivity of natural products. The bioactivity of compounds 3, 9, 11, 17 and 19 was not evaluated since they were either proven unstable or isolated in insufficient amounts. RAW 264.7 macrophages were stimulated with the TLR4 ligand LPS, which triggers a pro-inflammatory signal that induces nitric oxide (NO) production, and […] with increasing concentrations of the tested metabolites. The detection of NO was achieved using Griess reaction 48 h following cell activation and was used to determine the IC50 values. Inhibition of NO production was determined by comparing metabolite-treated cells with cells exposed to the vehicle solvent only (0.1% v/v Carbowax^TM 400 and 0.01% v/v ethanol). […] Mouse macrophage RAW 264.7 cell line was cultured in DMEM medium (cat. # 21885-025, Gibco) supplemented with 10% v/v heat-inactivated fetal bovine serum (cat. # 10270-106, Gibco) and 1% v/v penicillin-streptomycin (cat. # 15070-063, Gibco). Cells were grown in stable conditions, 37 °C and 5% CO2, in a CO2 cell culture sterile incubator. In compound treatments, each compound tested was diluted in Carbowax^TM 400 + 10% abs. ethanol (E/0650DF/17, Fisher chemical), serving also as the control solvent. The final concentration of ethanol in cell culture was 0.01% v/v and of Carbowax^TM 400 0.1% v/v independently of the compound dilution prepared. Macrophage activation was performed using 100 ng/mL LPS (L2630, Sigma) and, in the case of compound-treated cells, macrophages were pre-treated for 1 h with the respective compounds before LPS stimulation. 30 × 10^4 RAW 264.7 mouse macrophages per sample were cultured overnight in 24-well plates. The following day, cells were pre-treated for 1 h with the respective compound concentration and then activated using LPS (100 ng/mL) for 48 h. The amount of nitrite, an oxidative product of NO, released in each culture supernatant was measured using Griess reaction. Accordingly, 50 µL of sulfanilamide solution (1% sulfanilamide in 5% H3PO4) was added to 50 µL of cell culture supernatant and the mix was incubated for 5 min at room temperature. Then, 50 µL of NED solution (0.1% N-1-napthylethylenediamine dihydrochlorite in H2O) was added and the absorbance was measured at 540 nm using an automated microplate reader (Infinite 200 PRO, Tecan). All incubations were performed in the dark and the nitrite concentration was estimated using a sodium nitrite standard curve.
A general note: Nitrite, measured by Griess reagent, commonly stands in for NO production.

The nature of data set [3]: Chemical stability of the isolated compound upon standing. Conditions: upon standing after isolation. Format: physicochemical.
Where [4] appears, read: Mus musculus, RAW264.7, RAW 264.7 macrophages.

Entries after “also recorded” stand apart in the source; their conditions may differ. Where two headings read alike, the source gives them in different places. A value given as a limit tells only on which side of the number the result lay.

As a reminder, the IC50 is the point on the concentration scale where inhibition reaches its midpoint. As to `C#C/C=C\CC(Br)[C@@H]1C[C@@H](OC(C)=O)[C@H](CCCCC)O1` (relative stereo) [Compound 5, (3Z,7S*,9R*,10S*)-9-acetoxy-6-bromo-7,10-epoxypentadec-3-en-1-yne], the Cytostatic Activity in data set [1] was greater than 50 µM. In addition, in data set [2] (setting [4]), the IC50 amounted to 3.69 µM.
On to `C[C@@]12O[C@]1(C)CC[C@@]2(C)c1ccc(CO)cc1` (relative stereo) [Compound 10, (1S*,2S*,3R*)-2,3-epoxy-15-hydroxydihydroisolaurene], for which, in data set [1], the “cytostatic activity above the stated concentration” value was “above 50 μM” and the Cytostatic Activity was greater than 50 µM. In addition, the IC50 in data set [2] (setting [4]) came out at 20.5 µM.
Take `Cc1ccc([C@]2(C)CC[C@@]3(C)O[C@]32C)cc1` (relative stereo) [Compound 11, (1S*,2S*,3R*)-2,3-epoxydihydroisolaurene]: the “stability of the isolated compound, in words” value in data set [3] is given as “quite unstable”.
For `CC1=C(C)[C@](C)(c2ccc(CBr)cc2)CC1` (single isomer, unassigned) [Compound 8, 15-bromoisolaurene], in data set [1], the “cytostatic activity above the stated concentration” value is reported as “above 25 μM” and the Cytostatic Activity is greater than 25 µM. In data set [2] (setting [4]), the IC50 came out at 6.92 µM.
For the molecule `CC(=O)CC[C@](C)(C(C)=O)c1ccc(CO)cc1` (single isomer, unassigned) [Compound 14, 2,3-dioxo-15-hydroxy-seco-laurene], in data set [1], the “cytostatic activity above the stated concentration” value was “above 25 μM” and the Cytostatic Activity was greater than 25 µM. Besides, the half-maximal inhibitory concentration (IC50) in data set [2] (setting [4]) is 22.7 µM.
For `CC1=C(C)[C@](C)(c2ccc(C)cc2)CC1=O` (stereo in doubt) [Compound 7, 4-oxoisolaurene], in data set [1], the “cytostatic activity above the stated concentration” value is on record as “above 25 μM” and the Cytostatic Activity is greater than 25 µM. Further, the IC50 in data set [2] (setting [4]) was 25.3 µM.
`C#CC=CC(Cl)C1C2CC3OC(OC)(C(Br)CC)C1C3O2` (centres unmarked) [Compound 1, Maneonene F]: the “cytostatic activity above the stated concentration” value in data set [1] was “did not exhibit any cytostatic activity; also recorded: did not show any cytostatic effect”. Moreover, the IC50 in data set [2] (setting [4]) came to 10.2 µM.
Take `C#CC=CC(Cl)C1C2CC3OC(OC)(C(Br)CC)C1C3O2` (centres unmarked) [Compound 2, Maneonene G]: in data set [1], the “cytostatic activity above the stated concentration” value is “above 25 μM” and the Cytostatic Activity was greater than 25 µM. For the same molecule, in data set [2] (RAW 264.7 macrophages), the IC50 came to 12.7 µM.
On to `C#CC=CC(Cl)C1C2CC3OC(OC)(C(Br)CC)C1C3O2` (centres unmarked) [Compound 3, Maneonene H], for which the “stability of the isolated compound, in words” value in data set [3] is reported as “unstable”.
For `C#C/C=C\[C@@H](Cl)[C@H]1[C@@H]2/C(=C(/Br)CC)O[C@@H]3C[C@H]1O[C@H]23` [Compound 4, cis-maneonene D], the “cytostatic activity above the stated concentration” value in data set [1] is “did not exhibit any cytostatic activity; also recorded: no significant cytostatic activity”. Besides, in data set [2] (setting [4]), the IC50 was 8.91 µM.
`CC1=C(C)[C@](C)(c2ccc(C)cc2)CC1` [Compound 6, isolaurene] had a Cytostatic Activity in data set [1] greater than 50 µM. The “concentration at which significant NO reduction was observed” value in data set [2] (LPS-activated RAW 264.7, activity only at this concentration) turned out to be 62.5 µM. Also, the IC50 in data set [2] (setting [4]) was greater than 62.5 µM.
`C=C1[C@](C)(O)CC[C@@]1(C)c1ccc(CO)cc1` [Compound 12, laur-2-ene-3,12-diol]: in data set [1], the “cytostatic activity above the stated concentration” value was “above 50 μM” and the Cytostatic Activity is greater than 50 µM. In addition, in data set [2] (setting [4]), the IC50 was found to be 45.2 µM.
With `CC1(C)[C@H](O)CC[C@@]1(C)c1ccc(CO)cc1` [Compound 13, cuparene-3,12-diol], in data set [1], the “cytostatic activity above the stated concentration” value is reported as “above 50 μM” and the Cytostatic Activity was greater than 50 µM. Also, the IC50 in data set [2] (setting [4]) came to 23.8 µM.
Take `C=CC(C)(O)CC[C@@H]1C(=C)CC[C@H](Br)C1(C)C` (stereo partly drawn) [Compound 15, β-snyderol]: in data set [1], the “cytostatic activity above the stated concentration” value is recorded as “above 25 μM” and the Cytostatic Activity is greater than 25 µM. The IC50 in data set [2] (setting [4]) came to 33.1 µM.
Regarding `CC1=CC[C@@H](Br)C(C)(C)[C@]12CC[C@](C)(Cl)[C@@H](Br)C2` [Compound 16, 2,10-dibromo-3-chloro-a-chamigrene], in data set [1], the “cytostatic activity above the stated concentration” value was “above 25 μM” and the Cytostatic Activity is greater than 25 µM. Moreover, the IC50 in data set [2] (setting [4]) came to 4.97 µM.
For `CC1=CC[C@H](C)[C@](C)(O)[C@@]12CC[C@@](C)(Cl)[C@H](Br)C2` [Compound 18, compositacin A], the IC50 in data set [2] (setting [4]) turned out to be 3.55 µM.
Consider `CC1CCC(O)C2=CCC3C(C3(C)C)C21C` (stereo not drawn) [Compound 20, aristol-9-en-1α-ol], for which, in data set [1], the “cytostatic activity above the stated concentration” value was “above 50 μM” and the Cytostatic Activity is greater than 50 µM. Further, the IC50 in data set [2] (setting [4]) came out at 10.5 µM.
`C=C1CCC(Br)C(C)(C)C12CCC1(C)C(Br)CCC(C)(O)C1C2` (centres unmarked) [Compound 21, kahukuene B]: the Cytostatic Activity in data set [1] was greater than 25 µM. Moreover, in data set [2] (setting [4]), the IC50 is 6.66 µM.
On to `CCCCCCCCCCCC/C=C(\Cl)C=O` [Compound 22, (2Z)-2-chloro-pentadec-2-enal], for which, in data set [1], the “cytostatic activity above the stated concentration” value is greater than 3.125 µM and the Cytostatic Activity is greater than 3.12 µM. In addition, the IC50 in data set [2] (setting [4]) turned out to be 13.2 µM.
